Laboratory results as given in patent publication US8481544B2, “Antibacterial compositions” (Biota Europe Limited, priority 2006, dated 2013).
Values after ≈ are worked out from the molar mass of the structure shown.

Tests used:
[1] = system: Enterococcus faecalis ATCC 29212; test: MIC against Enterococcus faecalis ATCC 29212; type: cell-based; settings: ATCC29212; Enterococcus faecalis ATCC 29212; read-out: MICs against Enterococcus faecalis, Activity
Summary of the method: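 MIC measured by broth microdilution or agar dilution following CLSI guidelines (M7-A7 for aerobes, M11-A6 for anaerobes).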

Staphylococcus aureus = test: mouse Staphylococcus aureus septicaemia model of infection, survival at day 7; type: in vivo; settings: 1 and 6 hours after inoculation
Protocol: Some of the Example compounds were also tested for activity in a mouse Staphylococcus aureus septicaemia model of infection.

melting point | MIC [1] | SMILES | Percent survival (Staphylococcus aureus; 2 × 100 mg/kg intraperitoneal) | Percent survival (Staphylococcus aureus; 2 × 30 mg/kg intraperitoneal)
235 °C | < 0.25 µg/mL | CCOC(=O)Nc1nc2cc(-c3cccnc3)cc(-c3ccccn3)c2s1 [Example 174, (5-Pyridin-3-yl-7-pyridin-2-yl-benzothiazol-2-yl)-carbamic acid ethyl ester] |  | 
220 °C | 0.25 to 1 µg/mL (≈ 0.688 to 2.75 µM) | CCNC(=O)Nc1nc2cc(-c3cccnc3)cc(-c3ccc[nH]3)c2s1 [Example 90, 1-Ethyl-3-[5-pyridin-3-yl-7-(1H-pyrrol-2-yl)-benzothiazol-2-yl]-urea] |  | 
249.9 °C | < 0.25 µg/mL | CCNC(=O)Nc1nc2cc(-c3cccnc3)cc(-c3cccc(Cl)n3)c2s1 [Example 88, 1-[7-(6-Chloro-pyridin-2-yl)-5-pyridin-3-yl-benzothiazol-2-yl]-3-ethyl-urea] |  | 
300.1 °C | < 0.25 µg/mL | CCNC(=O)Nc1nc2cc(-c3cccnc3)cc(-c3cccc(OC)n3)c2s1 [Example 167, 1-Ethyl-3-[7-(6-methoxy-pyridin-2-yl)-5-pyridin-3-yl-benzothiazol-2-yl]-urea] |  | 
231 °C | < 0.25 µg/mL | CCNC(=O)Nc1nc2cc(-c3cccnc3)cc(-c3ccc(C)cn3)c2s1 [Example 175, 1-Ethyl-3-[7-(5-methyl-pyridin-2-yl)-5-pyridin-3-yl-benzothiazol-2-yl]-urea] |  | 
345 °C | 0.25 to 1 µg/mL (≈ 0.663 to 2.65 µM) | CCNC(=O)Nc1nc2cc(-c3cccnc3)cc(Br)c2s1 [Example 3, 1-(7-Bromo-5-pyridin-3-yl-benzothiazol-2-yl)-3-ethyl-urea] |  | 
256.7 °C | < 0.25 µg/mL | CCNC(=O)Nc1nc2cc(-c3cccnc3)cc(-c3cccc(C(F)(F)F)n3)c2s1 [Example 89, 1-Ethyl-3-[5-pyridin-3-yl-7-(6-trifluoromethyl-pyridin-2-yl)-benzothiazol-2-yl]-urea] |  | 
 | 0.25 to 1 µg/mL (≈ 0.701 to 2.81 µM) | CCNC(=O)Nc1nc2cc(-c3cccnc3)cc(C(=O)OC)c2s1 [Example 151, 2-(3-Ethyl-ureido)-5-pyridin-3-yl-benzothiazole-7-carboxylic acid methyl ester] |  | 
 | 2 to 16 µg/mL (≈ 5.03 to 40.3 µM) | CCNC(=O)Nc1nc2cc(-c3cccnc3)cc(-c3csc(O)n3)c2s1 [Example 172, 1-Ethyl-3-[7-(2-hydroxy-thiazol-4-yl)-5-pyridin-3-yl-benzothiazol-2-yl]-urea] |  | 
 | 2 to 16 µg/mL (≈ 5.49 to 43.9 µM) | CCNC(=O)Nc1nc2cc(-n3cccn3)cc(-c3cccnc3)c2s1 [Example 12, 1-Ethyl-3-(5-pyrazol-1-yl-7-pyridin-3-yl-benzothiazol-2-yl)-urea] |  | 
 | 0.25 to 1 µg/mL (≈ 0.54 to 2.16 µM) | CCNC(=O)Nc1nc2cc(-c3ccn(CCN(C)C)c(=O)c3)cc(-c3ccccn3)c2s1 [Example 72, 1-{5-[1-(2-Dimethylamino-ethyl)-2-oxo-1,2-dihydro-pyridin-4-yl]-7-pyridin-2-yl-benzothiazol-2-yl}-3-ethyl-urea] |  | 

SMILES | melting point | MIC [1] | Percent survival (Staphylococcus aureus; 2 × 100 mg/kg intraperitoneal) | Percent survival (Staphylococcus aureus; 2 × 30 mg/kg intraperitoneal)
CCNC(=O)Nc1nc2cc(-c3cccnc3)cc(-c3cccnc3)c2s1 [Example 4, 1-(5,7-Di-pyridin-3-yl-benzothiazol-2-yl)-3-ethyl-urea] |  | 0.25 to 1 µg/mL (≈ 0.666 to 2.66 µM) | 100 | 
CCNC(=O)Nc1nc2cc(-c3cccnc3)cc(-c3ncccc3F)c2s1 [Example 91, 1-Ethyl-3-[7-(3-fluoro-pyridin-2-yl)-5-pyridin-3-yl-benzothiazol-2-yl]-urea] |  | < 0.25 µg/mL |  | 100
